How the values were obtained:
[1] = Relaxivity measurements at 1.41 T in water and human plasma; assay type: physicochemical; conditions: 37 °C, normalized to Gd
Procedure: Relaxivity measurements at 1.41 T were performed using a MiniSpec mq60 spectrometer (Bruker Analytik, Karlsruhe, Germany) operating at a resonance frequency of 60 MHz and a temperature of 37 °C. The T1 relaxation times were determined using the standard inversion recovery (IR) method with a fixed relaxation delay of at least 5×T1. The variable inversion time (TI) was calculated automatically by the standard software of the MiniSpec mq60 (8 steps). The T2 measurements were performed by using a Carr-Purcell-Meiboom-Gill (CPMG) pulse sequence, applying a relaxation delay of at least 5×T1.
Each relaxivity measurement was performed using three different Gd concentrations (3 concentrations between 0.05 and 2 mM). The T1 and T2 relaxation times of the example compounds 1 to 10 were measured in different media for example in water and human plasma. Human plasma preparation: For each experiment fresh blood was taken from a volunteer using 10 mL citrate-tubes (Sarstedt S-Monovette 02.1067.001, 10 mL, Citrate). The 10 mL citrate-tubes were carefully inverted 10 times to mix blood and anticoagulant and centrifuged for 15 min at 1811 g at RT (Eppendorf, Centrifuge 5810R).
The relaxivities ri (where i=1, 2) were calculated based on the measured relaxation rates R, in water and plasma:
where Ri(0) represent the relaxation rate of the respective solvent and CGd the concentration of the compound normalized to the Gadolinium. The Gadolinium concentrations of the investigated solutions were verified by Inductively Coupled Plasma Mass Spectrometry (ICP-MS Agilent 7500a, Waldbronn, Germany).

OATP1B3 = target: T1, OATP1B3 (Homo sapiens, UniProt Q9NPD5); assay: Uptake into stable transfected OATP1B3 HEK 293 cells; assay type: cell-based; conditions: 100 μM, 40 min, relative to RC1 (Gd-EOB-DTPA)
T1 construct: expressed in transfected cells
T1 sequence (Q9NPD5 1-702): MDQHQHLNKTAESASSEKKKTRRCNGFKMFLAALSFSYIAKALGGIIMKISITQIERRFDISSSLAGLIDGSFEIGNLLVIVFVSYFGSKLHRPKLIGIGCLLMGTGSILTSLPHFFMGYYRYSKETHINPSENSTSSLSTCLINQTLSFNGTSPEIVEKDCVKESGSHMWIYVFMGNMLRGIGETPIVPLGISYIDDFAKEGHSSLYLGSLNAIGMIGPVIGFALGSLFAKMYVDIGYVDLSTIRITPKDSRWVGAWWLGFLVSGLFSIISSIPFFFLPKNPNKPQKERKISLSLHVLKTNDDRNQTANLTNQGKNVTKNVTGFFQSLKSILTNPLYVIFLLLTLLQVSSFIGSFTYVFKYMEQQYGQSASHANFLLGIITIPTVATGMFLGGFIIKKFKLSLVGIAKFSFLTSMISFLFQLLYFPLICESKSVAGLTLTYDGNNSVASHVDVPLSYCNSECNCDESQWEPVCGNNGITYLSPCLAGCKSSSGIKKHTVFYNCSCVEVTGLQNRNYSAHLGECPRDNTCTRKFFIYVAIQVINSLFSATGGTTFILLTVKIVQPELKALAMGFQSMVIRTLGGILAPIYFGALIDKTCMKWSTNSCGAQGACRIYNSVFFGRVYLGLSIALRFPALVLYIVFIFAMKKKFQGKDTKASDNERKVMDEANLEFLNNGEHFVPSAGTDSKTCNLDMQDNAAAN
Procedure: Human transfected OATP1B3 human embryonic kidney 293 cells (OATP1B3 HEK 293, SLCO1B3, Entrez Gene ID: 28234) were used (Leonhardt M et al. Drug Metab Dispos. 2010 July; 38(7):1024-8). The following culture medium was used: 500 mL DMEM (Dulbecco's Modified Eagle Medium—high Glucose, D6429), 50 mL FCS (fetal bovine serum, Fa. Sigma, F7524), 5.8 mL G418 (Geneticin, Fa. Gibco 10131-027) and 5 mL Pen-Strep. (Penicillin-Streptomycin, Fa. Gibco, Ref 15140-122). Cryopreserved cells were shortly thawed in water bath and diluted in 10 mL warm culture medium (37 °C). After medium change the cells were grown for 3d in a 25 cm^2 cell culture flask. After 3 to 5d the cells were transferred into 75 cm^2 flasks. For the splitting of cells these were incubated with 1.5 mL trypsin (Trypsin-EDTA (1×) 0.05%, Ref 25300-054 100 ml, Fa. Gibco) for 3-5 min in the incubator (37 °C, 5% CO2 and 95% oxygen). After centrifugation and washing with medium the cells were counted (50 μL cell suspension and 50 μL trypan blue (Trypan Blue Solution, 93595-50 ml, Fa. Fluka). Cells were cultured (1×10^5 cells/well) in poly-D-lysine coated 24-well plates (Fa. Corning, Ref: 354414) in 1.5 mL medium per well. After 48 hours in the incubator the medium was changed and 1.5 mL/well sodium butyrate containing medium were added (40 mL culture medium plus 400 μL Na-Butyrate, Fa. Sigma Aldrich B5887-5G, 250 mg in 2.27 mL MilliQ water). After 24 hours in the incubator the medium was vacuumed off and 1.5 mL transport buffer was added and incubated for 10 min. The transport buffer contains the following ingredients: 500 mL HBSS (Hank's balanced salt solution, Hyclone, SH30268.01), 5 mL HEPES buffer (4-(2-hydroxyethyl)-1-piperazine-ethanesulfonic acid, Gibco 15630-056) and 3.9 mL glucose (Sigma, G8270-100, 90 g/200 mL MilliQ water). All test items were prepared in transport buffer at a final concentration of 100 μM from stock solutions (180 to 500 mM concentration). The OATP1B3 HEK 293 cells were incubated with test solutions (test item in transport buffer 500 μL) for 40 min on a thermoshaker without shaking (PHMP, Fa. Grant Bio). Triplicates were performed for each test item. After incubation the cells were washed with 2 mL of cold PBS (+) buffer (Dulbeccos PBS+, Fa. Gibco). […] As a reference standard Gd-EOB-DTPA (gadoxetate) is used in the same well plate. The OATP1B3 HEK 293 uptake of the test compound is calculated relative to gadoxetate (resulting in the unit % of RC1).

| Structure (SMILES) | r1 human plasma [1] [L/mmol/s] | r1 water [1] [L/mmol/s] | Uptake into OATP1B3-HEK 293 cells (OATP1B3) |
| --- | --- | --- | --- |
| CCCCOc1ccc(C[C@H]2CN(CC(=O)[O-])CCN(CC(=O)[O-])CCN(CC(=O)O)CCN2CC(=O)[O-])cc1.[Gd+3] (single isomer, unassigned; stereoisomer 1) [Example 12] | 8.8 | 4.7 | 66 % of RC1 |
| CCOc1ccc(CC2CN(CC(=O)[O-])CCN(CC(=O)[O-])CCN(CC(=O)O)CCN2CC(=O)[O-])cc1.[Gd+3] (single isomer, unassigned; diastereomer 2) [Example 9, Gadolinium-2,2′,2″-[10-(carboxymethyl)-2-(4-ethoxybenzyl)-1,4,7,10-tetraazacyclododecane-1,4,7-triyl]triacetate (racemic diastereomer 2)] | 5.6 | 4.3 | 13 % of RC1 |
| CCOCCOCCOc1ccc(C[C@H]2CN(CC(=O)[O-])CCN(CC(=O)[O-])CCN(CC(=O)O)CCN2CC(=O)[O-])cc1.[Gd+3] [Example 2, Gadolinium-2,2′,2″-[(2S)-10-(carboxymethyl)-2-{4-[2-(2-ethoxyethoxy)ethoxy]benzyl}-1,4,7,10-tetraazacyclododecane-1,4,7-triyl]triacetate] | 5.9 | 4.9 | 121 % of RC1 |
| CCOc1ccc(CC2CN(CC(=O)[O-])CCN(CC(=O)[O-])CCN(CC(=O)O)CCN2CC(=O)[O-])cc1.[Gd+3] (stereo not drawn) [Example 7, Gadolinium-2,2′,2″-[10-(carboxymethyl)-2-(4-ethoxybenzyl)-1,4,7,10-tetraazacyclododecane-1,4,7-triyl]triacetate] | 6.2 | 4.5 | 36 % of RC1 |
| CCOCCOCCOCCOc1ccc(C[C@H]2CN(CC(=O)[O-])CCN(CC(=O)[O-])CCN(CC(=O)O)CCN2CC(=O)[O-])cc1.[Gd+3] [Example 5, Gadolinium-2,2′,2″-[(2S)-10-(carboxymethyl)-2-(4-{2-[2-(2-ethoxyethoxy)ethoxy]ethoxy}benzyl)-1,4,7,10-tetraazacyclododecane-1,4,7-triyl]triacetate] | 5.7 | 5.1 | 100 % of RC1 |
| COCCOCCOCCOc1ccc(C[C@@H]2CN(CC(=O)[O-])CCN(CC(=O)[O-])CCN(CC(=O)O)CCN2CC(=O)[O-])cc1.[Gd+3] [Example 3, Gadolinium-2,2′,2″-[(2R)-10-(carboxymethyl)-2-(4-{2-[2-(2-methoxyethoxy)ethoxy]ethoxy}benzyl)-1,4,7,10-tetraazacyclododecane-1,4,7-triyl]triacetate] | 6.8 | 5.0 | 28 % of RC1 |
| CCCCOc1ccc(C[C@H]2CN(CC(=O)[O-])CCN(CC(=O)[O-])CCN(CC(=O)O)CCN2CC(=O)[O-])cc1.[Gd+3] (single isomer, unassigned; stereoisomer 2) [Example 13] | 9.8 | 5.3 | 383 % of RC1 |
| CCOc1ccc(C[C@H]2CN(CC(=O)[O-])CCN(CC(=O)[O-])CCN(CC(=O)O)CCN2CC(=O)[O-])cc1.[Gd+3] (single isomer, unassigned; stereoisomer 2) [Example 11] | 6.2 | 4.4 | 32 % of RC1 |
| COCCOCCOCCOc1ccc(C[C@H]2CN(CC(=O)[O-])CCN(CC(=O)[O-])CCN(CC(=O)O)CCN2CC(=O)[O-])cc1.[Gd+3] [Example 1, Gadolinium-2,2′,2″-[(2S)-10-(carboxymethyl)-2-(4-{2-[2-(2-methoxyethoxy)-ethoxy]ethoxy}benzyl)-1,4,7,10-tetraazacyclododecane-1,4,7-triyl]triacetate] | 6.6 | 5.1 | 79 % of RC1 |
| CCOCCOc1ccc(C[C@H]2CN(CC(=O)[O-])CCN(CC(=O)[O-])CCN(CC(=O)O)CCN2CC(=O)[O-])cc1.[Gd+3] [Example 4, Gadolinium-2,2′,2″-{(2S)-10-(carboxymethyl)-2-[4-(2-ethoxyethoxy)benzyl]-1,4,7,10-tetraazacyclododecane-1,4,7-triyl}triacetate] | 6.6 | 4.8 | 103 % of RC1 |
| CCOc1ccc(C[C@H]2CN(CC(=O)[O-])CCN(CC(=O)[O-])CCN(CC(=O)O)CCN2CC(=O)[O-])cc1.[Gd+3] (single isomer, unassigned; stereoisomer 1) [Example 10] | 6.4 | 4.8 | 80 % of RC1 |
| CCOCCOCCOc1ccc(C[C@H]2CN(CC(=O)[O-])CCN(CC(=O)[O-])CCN(CC(=O)O)CCN2CC(=O)[O-])nc1.[Gd+3] [Example 6, Gadolinium 2,2′,2″-[(2S)-10-(carboxymethyl)-2-({5-[2-(2-ethoxyethoxy)ethoxy]pyridin-2-yl}methyl)-1,4,7,10-tetraazacyclododecane-1,4,7-triyl]triacetate] | 5.9 | 5.3 | 32 % of RC1 |
| CCOc1ccc(CC2CN(CC(=O)[O-])CCN(CC(=O)[O-])CCN(CC(=O)O)CCN2CC(=O)[O-])cc1.[Gd+3] (single isomer, unassigned; diastereomer 1) [Example 8, Gadolinium-2,2′,2″-[10-(carboxymethyl)-2-(4-ethoxybenzyl)-1,4,7,10-tetraazacyclododecane-1,4,7-triyl]triacetate (racemic diastereomer 1)] | 6.5 | 4.7 | 94 % of RC1 |

Source: patent US20260365677A1, “NEW CONTRAST AGENTS FOR USE IN DIAGNOSTIC IMAGING” (Bayer Aktiengesellschaft, priority 2022, published 2026)
